These results are taken from patent publication US7709242B2, “L-tyrosine producing bacterium and a method for producing L-tyrosine” (Ajinomoto Co., Inc., priority 2004, dated 2010).

Test [1] deals with PDH (encoded by the tyrA gene) (Escherichia coli, UniProt P07023). Conditions: Biochemistry. 1985 Feb. 26; 24(5): 1116; cited from earlier work.
The test system of test [2] is PDH of strains carrying pSTVtyrA-2, -5, -10, and -24. Nature of the test: PDH activity in crude enzyme solution at L-tyrosine concentrations, pSTVtyrA-2, -5, -10, -24 strains. The class given is biochemical, Escherichia coli. Particulars: in the presence of 100 μM L-tyrosine. The procedure:
(§1) W3110 ΔtyrR,tyrA/pSTVtyrA-1, -2, -5, -10, and -24 strains were cultured at 37° C. for 15 hours in a LB medium, respectively and each culture solution was centrifuged to collect bacterial cells. Next, after the bacterial cells were washed twice with 50 mM Tris-HCl (pH 7.5) and suspended in 50 mM Tris-HCl (pH 7.5) containing 20% glycerol on ice, a crude enzyme solution was prepared by repeating 30 second-ultrasonication 80 times. Then, the PDH activity was measured according to the method described in Biochemistry. 1990 Nov. 6; 29(44): 10245-54. That is, the enzyme reaction was performed at 30° C. for 10 minutes in 50 mM Tris-HCl (pH 7.5) containing 0.25 mM prephenate, 1 mM EDTA, 1 mM DTT, and 2 mM NAD, and the generated NADH was measured at an absorption wavelength of 340 nm. A protein assay was carried out by the Bradford method. […] Hereinafter, this tyrA gene inserted into pSTVtyrA-1 is referred to as tyrA(mut).

Test [3] addresses T1, PDH containing the 254/269 mutations (mutant 6, A254G/E269Y) (Escherichia coli, UniProt P07023, A254G/E269Y).
T1 construct: amplify a full length fragment of the tyrA gene which has mutations introduced; made in house; host or cells: Escherichia coli W3110 ΔtyrR,tyrA, plasmid pSTV28 (SmaI site); crude enzyme solution
Nature of the test: PDH activity in crude enzyme solution at tyrosine concentrations, 254/269 mutant. Conditions: in the presence of 800 μM tyrosine; strain harboring PDH with 254/269 mutations. The class given is biochemical. The procedure: (§2) A strain containing mutant 7 (257/265), a strain containing mutant 6 (254/269), both shown in Table 3, and a strain containing the T260I mutation shown in Table 2 were cultured at 37° C. for 15 hours in LB medium, and after the culture, the resulting culture was centrifuged to collect bacterial cells. Then, after the bacterial cells were washed twice with 50 mM Tris-HCl (pH 7.5) and suspended in 50 mM Tris-HCl (pH 7.5) containing 20% glycerol on ice, a crude enzyme solution was prepared by repeating 30 second-ultrasonication 80 times. PDH activity was measured according to the method described in Biochemistry. 1990 Nov. 6; 29(44): 10245-54. That is, a reaction was carried out at 30° C. for 10 minutes in 50 mM Tris-HCl (pH 7.5) containing 0.25 mM prephenate, 1 mM EDTA, 1 mM DTT, and 2 mM NAD^+, and NADH was measured at an absorption wavelength of 340 nm. A protein assay was carried out by the Bradford method. […] However, the PDH activity of the strain harboring the PDH with the 257/265 mutation could not be measured even though the L-tyrosine yield was high.

Test [4] deals with T2, PDH of W3110 ΔtyrR,tyrA/pSTVtyrA-1 strain (tyrA(mut), P100S/T260I) (Escherichia coli, UniProt P07023, P100S/T260I).
T2 construct: The resulting mutated fragment was then ligated to pSTV28; made in house; host or cells: Escherichia coli W3110 ΔtyrR,tyrA (endogenous tyrA disrupted), plasmid pSTV28; crude enzyme solution
Nature of the test: PDH activity in crude enzyme solution at L-tyrosine concentrations, pSTVtyrA-1 strain. The class given is biochemical. Particulars: in the presence of 800 μM L-tyrosine. As for the experimental part:
as §1
The nucleotide sequence of the tyrA(mut) gene was determined according to a standard method. In this mutant, proline at position 100 and threonine at position 260 were replaced by serine and isoleucine, respectively. […] The obtained strains were cultured and L-tyrosine production was evaluated. […]

For test [5], the target named is T3, wild-type PDH (prephenate dehydrogenase) (Escherichia coli, UniProt P07023).
T3 construct: made in house; host or cells: Escherichia coli (crude enzyme solution of sonicated cells)
Nature of the test: PDH activity in crude enzyme solution at L-tyrosine concentrations, wild-type PDH. The class given is biochemical. Particulars: in the presence of 100 μM L-tyrosine; strain carrying wild-type PDH. The text has this: Such mutant PDH can be obtained by introducing amino acid substitutions into wild-type PDHs and selecting a PDH which is not subject to feedback inhibition by L-tyrosine due to the amino acid substitution-introduced PDHs. Specifically, nucleotide substitutions causing amino acid substitutions are introduced into a DNA encoding PDH (e.g., SEQ ID NO: 1) by the use of, for example, site-directed mutagenesis using PCR or the like, and an Escherichia bacterium, preferably an Escherichia bacterium in which a wild-type PDH gene is disrupted is transformed with the mutated DNA. The PDH activity of the bacterium is then measured in the presence and absence of L-tyrosine, and a strain in which PDH is resistant to feedback inhibition by L-tyrosine is selected. PDH activity can be measured according to the method described in Biochemistry. 1990 Nov. 6; 29(44): 10245-54.
W3110 ΔtyrR,tyrA/pSTVtyrA-1, -2, -5, -10, and -24 strains were cultured at 37° C. for 15 hours in a LB medium, respectively and each culture solution was centrifuged to collect bacterial cells. […] Then, the PDH activity was measured according to the method described in Biochemistry. […] That is, the enzyme reaction was performed at 30° C. for 10 minutes in 50 mM Tris-HCl (pH 7.5) containing 0.25 mM prephenate, 1 mM EDTA, 1 mM DTT, and 2 mM NAD, and the generated NADH was measured at an absorption wavelength of 340 nm. […]

The target of test [6] is T4, PDH containing the T260I mutation (Escherichia coli, UniProt P07023, T260I).
T4 construct: EcoRI-CpoI fragment containing no mutation excised from pSTVtyrA(W) was connected to the vector fragment of EcoRI-CpoI-digested pSTVtyrA(mut); made in house; host or cells: Escherichia coli W3110 ΔtyrR,tyrA, plasmid pSTVtyrA(T260I); crude enzyme solution
Description: PDH activity in crude enzyme solution at tyrosine concentrations, T260I mutant. The class given is biochemical. Conditions: in the presence of 800 μM tyrosine; strain harboring PDH with T260I. As for the experimental part:
as §2

T3 sequence (P07023 whole entry): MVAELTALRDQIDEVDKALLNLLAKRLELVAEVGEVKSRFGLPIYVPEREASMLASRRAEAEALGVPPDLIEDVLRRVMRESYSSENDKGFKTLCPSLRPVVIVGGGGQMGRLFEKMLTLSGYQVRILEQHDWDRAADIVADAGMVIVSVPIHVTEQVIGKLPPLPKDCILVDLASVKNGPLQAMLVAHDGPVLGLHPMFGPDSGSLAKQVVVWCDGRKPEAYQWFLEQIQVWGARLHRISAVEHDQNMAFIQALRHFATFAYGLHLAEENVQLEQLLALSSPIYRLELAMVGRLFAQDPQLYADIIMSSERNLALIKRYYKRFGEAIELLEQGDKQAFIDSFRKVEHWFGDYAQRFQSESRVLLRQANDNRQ
Chain of PDH (encoded by the tyrA gene) (P07023 whole entry): as above
T2 sequence (P07023 whole entry P100S/T260I, the tested form may be a part): as the sequence (P07023 whole entry) above, with P100S, T260I counted along it
T1 sequence (P07023 whole entry A254G/E269Y, the tested form may be a part): as the sequence (P07023 whole entry) above, with A254G, E269Y counted along it
T4 sequence (P07023 whole entry T260I, the tested form may be a part): as the sequence (P07023 whole entry) above, with T260I counted along it

In the case of `N[C@@H](Cc1ccc(O)cc1)C(=O)O` [L-tyrosine], the “concentration of L-tyrosine at which PDH is inhibited (as low as)” value in test [1] is 300 µM. For the same compound, the “inhibition of PDH activity” value in test [2] is recorded as “strongly inhibited”; in test [3], “almost no inhibition”; in test [4] it was “almost no inhibition”; in test [5], “strongly inhibited”; in test [6], “almost no inhibition”.
